Consider four compounds from article PMC5564600 (Oncotarget, 2017).

SMILES strings stand for the structures. Read-outs that look alike come from different tables or passages of the source.

Holding throughout (experiment): biochemical
Holding throughout (assay type): binding

The target of assay [1] is T1, panel of 442 kinases (Homo sapiens, UniProt P35916).
T1 construct: purchased Ambit Biosciences (scanMAXX KINOMEscan)
The note with it: kinase FLT4; for remaining activity at 1 µM: read-out: % of control at 1 µM.

Assay [2] concerns the target T2, panel of 442 kinases (Homo sapiens, UniProt Q06187).
T2 construct: purchased Ambit Biosciences (scanMAXX KINOMEscan)
The note with it: BTK; for remaining activity at 1 µM: read-out: % of control at 1 µM.

In assay [3] the target is T3, panel of 442 kinases (Homo sapiens, UniProt P08581, M1250T).
T3 construct: purchased Ambit Biosciences (scanMAXX KINOMEscan)
T3 sequence (P08581 25-1390 M1250T): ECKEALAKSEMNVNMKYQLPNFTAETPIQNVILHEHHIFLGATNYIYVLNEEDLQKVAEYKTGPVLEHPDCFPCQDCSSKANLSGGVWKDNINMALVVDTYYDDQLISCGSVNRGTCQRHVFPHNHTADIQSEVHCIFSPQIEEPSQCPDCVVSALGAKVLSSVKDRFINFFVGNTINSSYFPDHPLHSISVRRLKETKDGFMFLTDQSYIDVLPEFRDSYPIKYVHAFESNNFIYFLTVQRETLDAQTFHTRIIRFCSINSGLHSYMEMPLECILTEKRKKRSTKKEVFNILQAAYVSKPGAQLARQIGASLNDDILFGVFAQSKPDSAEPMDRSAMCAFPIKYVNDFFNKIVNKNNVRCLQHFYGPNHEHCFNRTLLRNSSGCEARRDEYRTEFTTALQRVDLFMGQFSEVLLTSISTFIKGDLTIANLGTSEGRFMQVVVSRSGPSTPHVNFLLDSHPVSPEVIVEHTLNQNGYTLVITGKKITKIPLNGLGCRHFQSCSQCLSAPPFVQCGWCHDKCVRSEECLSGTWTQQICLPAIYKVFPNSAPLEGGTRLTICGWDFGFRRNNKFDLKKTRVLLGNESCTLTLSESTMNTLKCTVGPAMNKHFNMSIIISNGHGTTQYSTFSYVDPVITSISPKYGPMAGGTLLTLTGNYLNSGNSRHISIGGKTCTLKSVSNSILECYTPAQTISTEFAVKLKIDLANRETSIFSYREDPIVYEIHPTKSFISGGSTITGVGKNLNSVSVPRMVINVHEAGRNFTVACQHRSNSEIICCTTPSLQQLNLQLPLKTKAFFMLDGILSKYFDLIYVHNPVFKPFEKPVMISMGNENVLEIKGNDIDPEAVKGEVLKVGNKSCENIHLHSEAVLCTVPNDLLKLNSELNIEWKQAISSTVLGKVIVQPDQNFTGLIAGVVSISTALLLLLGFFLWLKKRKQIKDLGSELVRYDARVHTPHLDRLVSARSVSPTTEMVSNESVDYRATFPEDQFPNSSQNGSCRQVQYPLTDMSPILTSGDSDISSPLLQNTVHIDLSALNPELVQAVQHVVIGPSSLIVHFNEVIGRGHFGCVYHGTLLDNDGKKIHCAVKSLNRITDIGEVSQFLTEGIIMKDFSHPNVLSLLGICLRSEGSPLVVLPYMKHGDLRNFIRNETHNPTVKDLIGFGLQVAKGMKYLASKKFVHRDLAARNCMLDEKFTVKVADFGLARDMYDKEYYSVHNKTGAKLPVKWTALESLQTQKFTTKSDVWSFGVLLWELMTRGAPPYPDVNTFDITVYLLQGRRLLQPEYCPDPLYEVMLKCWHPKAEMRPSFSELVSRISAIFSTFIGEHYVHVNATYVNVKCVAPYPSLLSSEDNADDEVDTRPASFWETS
The note with it: kinase MET(M1250T); for remaining activity at 1 µM: read-out: % of control at 1 µM.

In assay [4] the target is T4, panel of 442 kinases (Homo sapiens, UniProt Q9NWZ3).
T4 construct: purchased Ambit Biosciences (scanMAXX KINOMEscan)
T4 sequence (Q9NWZ3 1-460): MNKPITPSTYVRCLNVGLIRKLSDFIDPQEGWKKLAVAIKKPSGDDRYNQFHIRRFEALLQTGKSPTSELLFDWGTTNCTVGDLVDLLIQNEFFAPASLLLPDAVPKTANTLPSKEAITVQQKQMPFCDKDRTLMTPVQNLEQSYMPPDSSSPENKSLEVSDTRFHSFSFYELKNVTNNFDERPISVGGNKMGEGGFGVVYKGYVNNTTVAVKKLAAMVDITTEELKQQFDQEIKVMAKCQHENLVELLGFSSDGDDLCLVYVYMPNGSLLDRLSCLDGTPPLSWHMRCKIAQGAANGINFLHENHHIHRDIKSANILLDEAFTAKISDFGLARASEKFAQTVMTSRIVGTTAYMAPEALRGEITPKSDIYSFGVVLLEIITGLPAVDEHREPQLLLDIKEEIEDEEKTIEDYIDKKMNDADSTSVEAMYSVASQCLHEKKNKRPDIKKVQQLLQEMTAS
The settings on record: kinase IRAK4; for remaining activity at 1 µM: read-out: % of control at 1 µM.

The target in assay [5] is T5, panel of 442 kinases (Homo sapiens, UniProt P35590).
T5 construct: purchased Ambit Biosciences (scanMAXX KINOMEscan)
The note with it: kinase TIE1; for remaining activity at 1 µM: read-out: TIE1 (% of control at 1 µM).

Assay [6] deals with T6, panel of 442 kinases (Homo sapiens, UniProt Q6PHR2).
T6 construct: purchased Ambit Biosciences (scanMAXX KINOMEscan)
T6 sequence (Q6PHR2 1-472): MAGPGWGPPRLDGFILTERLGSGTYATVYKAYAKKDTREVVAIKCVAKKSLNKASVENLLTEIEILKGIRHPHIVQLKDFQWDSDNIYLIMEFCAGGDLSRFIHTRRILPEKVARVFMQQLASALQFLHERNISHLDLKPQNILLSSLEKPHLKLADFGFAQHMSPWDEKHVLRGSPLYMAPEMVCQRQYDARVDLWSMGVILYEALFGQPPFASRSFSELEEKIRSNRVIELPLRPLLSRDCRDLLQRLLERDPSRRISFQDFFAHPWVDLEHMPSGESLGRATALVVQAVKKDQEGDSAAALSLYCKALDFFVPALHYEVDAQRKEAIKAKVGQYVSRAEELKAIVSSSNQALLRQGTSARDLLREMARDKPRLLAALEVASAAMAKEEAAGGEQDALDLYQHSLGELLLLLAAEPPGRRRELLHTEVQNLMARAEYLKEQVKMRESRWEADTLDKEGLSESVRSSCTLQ
The settings on record: kinase ULK3; for remaining activity at 1 µM: read-out: ULK3 (% of control at 1 µM).

Assay [7] concerns the target T7, panel of 442 kinases (Homo sapiens, UniProt O75460).
T7 construct: purchased Ambit Biosciences (scanMAXX KINOMEscan)
The settings on record: ERN1; for remaining activity at 1 µM: read-out: % of control at 1 µM.

Assay [8] concerns the target T8, panel of 442 kinases (Homo sapiens, UniProt Q5VT25).
T8 construct: purchased Ambit Biosciences (scanMAXX KINOMEscan)
The settings on record: kinase MRCKA; for remaining activity at 1 µM: read-out: % of control at 1 µM.

The target of assay [9] is T9, panel of 442 kinases (Homo sapiens, UniProt O00329).
T9 construct: purchased Ambit Biosciences (scanMAXX KINOMEscan)
T9 sequence (O00329 1-1044): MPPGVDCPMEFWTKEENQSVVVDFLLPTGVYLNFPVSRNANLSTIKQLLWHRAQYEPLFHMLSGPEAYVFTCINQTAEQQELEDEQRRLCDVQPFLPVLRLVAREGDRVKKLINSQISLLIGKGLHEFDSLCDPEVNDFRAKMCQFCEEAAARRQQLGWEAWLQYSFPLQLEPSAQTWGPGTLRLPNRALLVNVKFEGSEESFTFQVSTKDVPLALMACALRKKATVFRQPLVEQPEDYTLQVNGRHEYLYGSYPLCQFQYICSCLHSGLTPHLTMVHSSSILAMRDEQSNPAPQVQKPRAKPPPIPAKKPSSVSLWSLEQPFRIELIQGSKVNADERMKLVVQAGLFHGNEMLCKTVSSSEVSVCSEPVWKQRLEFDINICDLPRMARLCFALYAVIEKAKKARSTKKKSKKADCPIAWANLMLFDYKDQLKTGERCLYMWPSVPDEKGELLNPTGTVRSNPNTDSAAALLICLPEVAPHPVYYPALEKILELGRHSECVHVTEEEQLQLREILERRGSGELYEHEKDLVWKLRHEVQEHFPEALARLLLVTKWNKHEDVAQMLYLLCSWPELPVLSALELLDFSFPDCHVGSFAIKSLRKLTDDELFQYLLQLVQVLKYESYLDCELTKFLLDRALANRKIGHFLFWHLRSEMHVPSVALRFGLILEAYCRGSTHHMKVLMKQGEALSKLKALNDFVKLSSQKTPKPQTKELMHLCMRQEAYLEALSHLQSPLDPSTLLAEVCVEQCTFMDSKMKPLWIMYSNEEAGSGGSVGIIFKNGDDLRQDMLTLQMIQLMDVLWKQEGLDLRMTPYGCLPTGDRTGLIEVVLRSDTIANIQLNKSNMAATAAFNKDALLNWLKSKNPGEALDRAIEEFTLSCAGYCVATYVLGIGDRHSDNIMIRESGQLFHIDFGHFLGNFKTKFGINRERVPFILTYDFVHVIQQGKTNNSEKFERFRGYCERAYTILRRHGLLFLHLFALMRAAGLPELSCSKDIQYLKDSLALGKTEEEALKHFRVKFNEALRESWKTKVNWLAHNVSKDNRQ
The settings on record: kinase PIK3CD; 1 µM; read-out: % of control at 1 µM.

In assay [10] the target is T10, panel of 442 kinases (Homo sapiens, UniProt P00519, F317L).
T10 construct: purchased Ambit Biosciences (scanMAXX KINOMEscan)
The settings on record: for remaining activity at 1 µM: read-out: % of control at 1 µM; for remaining activity at 10 µM: read-out: % of control at 10 µM.

The target in assay [11] is T11, panel of 442 kinases (Homo sapiens, UniProt P07333).
T11 construct: purchased Ambit Biosciences (scanMAXX KINOMEscan)
The settings on record: CSF1R; for remaining activity at 1 µM: read-out: % of control at 1 µM.

Where [12] appears, read: 10 µM, read-out: % of control at 10 µM.

T1 sequence (P35916 25-1363): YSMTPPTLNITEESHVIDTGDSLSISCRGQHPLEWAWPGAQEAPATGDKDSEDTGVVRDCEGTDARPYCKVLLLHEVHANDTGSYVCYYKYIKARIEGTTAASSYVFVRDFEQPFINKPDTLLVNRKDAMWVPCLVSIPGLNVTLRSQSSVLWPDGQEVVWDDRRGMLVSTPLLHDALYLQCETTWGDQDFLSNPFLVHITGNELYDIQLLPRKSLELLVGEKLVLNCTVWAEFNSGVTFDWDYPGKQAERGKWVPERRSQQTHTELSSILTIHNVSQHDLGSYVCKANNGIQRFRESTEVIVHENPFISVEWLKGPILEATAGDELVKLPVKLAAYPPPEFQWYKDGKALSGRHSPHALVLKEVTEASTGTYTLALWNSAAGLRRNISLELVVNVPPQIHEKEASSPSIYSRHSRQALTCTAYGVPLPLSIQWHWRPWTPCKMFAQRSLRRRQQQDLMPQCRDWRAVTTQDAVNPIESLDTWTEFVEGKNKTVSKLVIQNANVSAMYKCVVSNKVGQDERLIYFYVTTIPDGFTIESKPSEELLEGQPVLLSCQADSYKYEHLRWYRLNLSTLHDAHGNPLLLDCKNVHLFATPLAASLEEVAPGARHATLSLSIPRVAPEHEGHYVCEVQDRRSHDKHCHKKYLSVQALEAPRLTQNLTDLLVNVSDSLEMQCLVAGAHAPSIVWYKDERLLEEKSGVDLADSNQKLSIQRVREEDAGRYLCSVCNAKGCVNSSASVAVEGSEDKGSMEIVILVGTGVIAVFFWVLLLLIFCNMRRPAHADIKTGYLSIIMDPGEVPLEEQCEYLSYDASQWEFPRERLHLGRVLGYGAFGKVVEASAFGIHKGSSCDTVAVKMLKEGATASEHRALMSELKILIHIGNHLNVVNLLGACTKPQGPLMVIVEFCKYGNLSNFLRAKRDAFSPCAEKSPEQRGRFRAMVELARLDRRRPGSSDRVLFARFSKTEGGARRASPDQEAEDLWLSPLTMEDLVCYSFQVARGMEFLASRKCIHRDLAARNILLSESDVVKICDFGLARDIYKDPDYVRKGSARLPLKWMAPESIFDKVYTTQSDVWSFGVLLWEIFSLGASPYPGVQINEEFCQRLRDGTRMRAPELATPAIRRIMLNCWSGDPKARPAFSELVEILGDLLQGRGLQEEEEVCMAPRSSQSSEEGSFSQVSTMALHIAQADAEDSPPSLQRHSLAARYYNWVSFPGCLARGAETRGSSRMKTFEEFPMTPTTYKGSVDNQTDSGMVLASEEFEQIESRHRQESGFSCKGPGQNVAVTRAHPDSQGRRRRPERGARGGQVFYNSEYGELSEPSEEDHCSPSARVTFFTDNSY
T8 sequence (Q5VT25 whole entry): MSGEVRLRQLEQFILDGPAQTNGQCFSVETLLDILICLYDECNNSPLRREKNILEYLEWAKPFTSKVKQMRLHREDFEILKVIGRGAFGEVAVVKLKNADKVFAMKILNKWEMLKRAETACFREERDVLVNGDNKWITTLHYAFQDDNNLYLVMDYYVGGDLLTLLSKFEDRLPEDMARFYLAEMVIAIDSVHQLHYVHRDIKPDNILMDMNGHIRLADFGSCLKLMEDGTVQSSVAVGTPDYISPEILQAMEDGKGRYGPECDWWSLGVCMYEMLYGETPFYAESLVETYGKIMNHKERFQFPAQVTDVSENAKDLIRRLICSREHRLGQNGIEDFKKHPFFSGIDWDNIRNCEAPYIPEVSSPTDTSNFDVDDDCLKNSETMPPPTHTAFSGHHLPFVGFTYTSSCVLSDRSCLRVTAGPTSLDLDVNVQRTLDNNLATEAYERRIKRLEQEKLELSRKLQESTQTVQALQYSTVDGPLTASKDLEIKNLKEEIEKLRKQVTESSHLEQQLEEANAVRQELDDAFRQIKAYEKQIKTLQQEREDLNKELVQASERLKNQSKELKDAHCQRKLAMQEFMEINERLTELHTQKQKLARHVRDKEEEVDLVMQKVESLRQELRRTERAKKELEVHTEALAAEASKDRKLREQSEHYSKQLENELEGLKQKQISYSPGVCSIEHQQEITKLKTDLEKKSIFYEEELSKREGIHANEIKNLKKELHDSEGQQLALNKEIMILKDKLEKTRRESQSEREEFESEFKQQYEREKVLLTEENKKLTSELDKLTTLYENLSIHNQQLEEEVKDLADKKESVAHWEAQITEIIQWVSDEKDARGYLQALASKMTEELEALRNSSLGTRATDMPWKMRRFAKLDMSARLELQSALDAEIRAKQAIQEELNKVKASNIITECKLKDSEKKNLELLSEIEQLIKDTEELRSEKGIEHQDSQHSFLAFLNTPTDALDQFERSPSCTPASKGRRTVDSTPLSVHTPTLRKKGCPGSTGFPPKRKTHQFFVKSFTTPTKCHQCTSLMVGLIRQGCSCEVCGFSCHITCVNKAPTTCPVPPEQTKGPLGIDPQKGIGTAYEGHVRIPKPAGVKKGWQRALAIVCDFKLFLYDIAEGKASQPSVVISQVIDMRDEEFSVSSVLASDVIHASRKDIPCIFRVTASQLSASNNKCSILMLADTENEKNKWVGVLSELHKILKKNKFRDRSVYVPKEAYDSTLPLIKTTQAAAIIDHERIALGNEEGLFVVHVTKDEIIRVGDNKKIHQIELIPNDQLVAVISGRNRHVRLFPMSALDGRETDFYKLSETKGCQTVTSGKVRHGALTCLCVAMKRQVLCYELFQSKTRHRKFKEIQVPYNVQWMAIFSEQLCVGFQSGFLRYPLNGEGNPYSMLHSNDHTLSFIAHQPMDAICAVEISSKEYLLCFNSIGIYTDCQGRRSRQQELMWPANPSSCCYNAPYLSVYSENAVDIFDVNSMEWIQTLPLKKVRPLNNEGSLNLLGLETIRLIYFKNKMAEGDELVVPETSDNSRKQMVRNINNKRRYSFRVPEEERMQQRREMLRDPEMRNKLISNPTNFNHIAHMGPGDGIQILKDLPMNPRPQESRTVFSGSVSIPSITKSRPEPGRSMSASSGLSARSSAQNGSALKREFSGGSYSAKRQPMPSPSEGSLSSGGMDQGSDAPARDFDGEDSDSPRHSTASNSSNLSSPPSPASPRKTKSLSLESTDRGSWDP
T2 sequence (Q06187 whole entry): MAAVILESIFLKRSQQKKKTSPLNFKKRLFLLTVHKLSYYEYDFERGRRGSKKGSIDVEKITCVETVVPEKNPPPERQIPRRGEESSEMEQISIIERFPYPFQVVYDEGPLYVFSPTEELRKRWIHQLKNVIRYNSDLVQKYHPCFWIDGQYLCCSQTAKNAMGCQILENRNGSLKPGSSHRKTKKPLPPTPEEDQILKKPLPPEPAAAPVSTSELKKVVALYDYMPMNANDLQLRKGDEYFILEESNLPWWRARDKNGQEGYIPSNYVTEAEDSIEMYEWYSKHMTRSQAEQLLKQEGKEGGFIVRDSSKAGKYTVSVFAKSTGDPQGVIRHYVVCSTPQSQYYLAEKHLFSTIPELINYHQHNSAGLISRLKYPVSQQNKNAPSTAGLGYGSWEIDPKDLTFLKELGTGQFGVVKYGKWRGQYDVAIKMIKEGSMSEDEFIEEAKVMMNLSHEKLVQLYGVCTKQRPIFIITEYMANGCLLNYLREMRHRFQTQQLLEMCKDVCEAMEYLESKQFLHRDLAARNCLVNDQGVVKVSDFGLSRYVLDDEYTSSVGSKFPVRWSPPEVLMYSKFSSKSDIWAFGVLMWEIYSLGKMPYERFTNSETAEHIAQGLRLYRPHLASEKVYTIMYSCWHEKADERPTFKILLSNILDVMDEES

For `COc1ncc(-c2ccc3nccc(-c4ccnnc4)c3c2)cc1NS(=O)(=O)c1ccc(F)cc1F` [Omipalisib], the remaining activity at 1 µM worked out at 100% on panel of 442 kinases [1]; 100% on panel of 442 kinases [2]; 80% on panel of 442 kinases [3]; 88% on panel of 442 kinases [4]; 100% at panel of 442 kinases [5]; 100% on panel of 442 kinases [6]. Besides, the remaining activity at 1 µM on panel of 442 kinases [7] was 73%; on panel of 442 kinases [8], 97%; on panel of 442 kinases [9] it was 0%; on panel of 442 kinases [10] (ABL1(F317L)-nonphosphorylated), 87%; at panel of 442 kinases [10] (ABL1(F317L)-phosphorylated), 100%; at panel of 442 kinases [11] it was 100%.

`Cn1c(=O)n(-c2ccc(C(C)(C)C#N)cc2)c2c3cc(-c4cnc5ccccc5c4)ccc3ncc21` [Dactolisib, 2-methyl-2-[4-(3-methyl-2-oxo-8-quinolin-3-yl-2,3-dihydroimidazo[4,5-c]quinolin-1-yl)-phenyl] propionitrile]: the remaining activity at 1 µM at panel of 442 kinases [1] came out at 100%; on panel of 442 kinases [4] it was 68%; at panel of 442 kinases [5], 100%; on panel of 442 kinases [6], 100%; on panel of 442 kinases [7], 100%; at panel of 442 kinases [8], 83%. The results for the remaining activity at 1 µM on panel of 442 kinases [9], on panel of 442 kinases [10] (ABL1(F317L)-nonphosphorylated) and on panel of 442 kinases [10] (ABL1(F317L)-phosphorylated) were 12%, 100% and 100%, respectively.

Turning to `Nc1cc(C(F)(F)F)c(-c2cc(N3CCOCC3)nc(N3CCOCC3)n2)cn1` [Buparlisib], the remaining activity at 1 µM at panel of 442 kinases [1] is 99%; at panel of 442 kinases [2], 71%; at panel of 442 kinases [3], 92%; on panel of 442 kinases [4], 62%; at panel of 442 kinases [5] it was 96%; at panel of 442 kinases [6], 100%. Besides, the remaining activity at 1 µM on panel of 442 kinases [7] amounted to 100%; on panel of 442 kinases [8], 80%; on panel of 442 kinases [10] (ABL1(F317L)-nonphosphorylated), 100%; at panel of 442 kinases [10] (ABL1(F317L)-phosphorylated) it was 100%; on panel of 442 kinases [11] it was 85%. In addition, the remaining activity at 10 µM at panel of 442 kinases [1] (setting [12]) is 100%; at panel of 442 kinases [2] (setting [12]) it was 89%; at panel of 442 kinases [3] (setting [12]), 100%; on panel of 442 kinases [4] (setting [12]), 67%; on panel of 442 kinases [5] (10 µM, read-out: TIE1 (% of control at 10 µM)), 100%; on panel of 442 kinases [6] (10 µM, read-out: ULK3 (% of control at 10 µM)), 100%. The remaining activity at 10 µM on panel of 442 kinases [7] (setting [12]) stood at 100%; on panel of 442 kinases [8] (setting [12]), 100%; on panel of 442 kinases [10] (ABL1(F317L)-nonphosphorylated) it was 100%; on panel of 442 kinases [10] (ABL1(F317L)-phosphorylated), 100%; at panel of 442 kinases [11] (setting [12]), 40%.

Take `FC(F)c1nc2ccccc2n1-c1nc(N2CCOCC2)nc(N2CCOCC2)n1` [ZSTK474, 2-(difluoromethyl)-1-[4,6-di(4-morpholinyl)-1,3,5-triazin-2-yl]-1H-benzimidazole]: the remaining activity at 1 µM stood at 96% at panel of 442 kinases [1]; 100% on panel of 442 kinases [2]; 99% on panel of 442 kinases [3]; 100% on panel of 442 kinases [4]; 88% at panel of 442 kinases [5]; 97% at panel of 442 kinases [6]. Moreover, the remaining activity at 1 µM amounted to 90% at panel of 442 kinases [7]; 83% on panel of 442 kinases [8]; 0% at panel of 442 kinases [9]; 85% on panel of 442 kinases [10] (ABL1(F317L)-nonphosphorylated); 100% on panel of 442 kinases [10] (ABL1(F317L)-phosphorylated); 90% on panel of 442 kinases [11].
